Assay results: ChEMBL document CHEMBL1641542, “Structure-activity relationships of 2,4-diphenyl-1H-imidazole analogs as CB2 receptor agonists for the treatment of chronic pain” (Bioorg Med Chem Lett, 2011)

Key:
Cannabinoid receptor 1 [1] = target: T1, Cannabinoid receptor 1 (Homo sapiens, UniProt P21554); test: Agonist activity at human cloned CB1 receptor expressed in CHO cells assessed as inhibition of forskolin-induced cAMP accumulation; assay type: functional, cell-based
Cannabinoid receptor 2 [2] = target: T2, Cannabinoid receptor 2 (Homo sapiens, UniProt P34972); test: Agonist activity at human cloned CB2 receptor expressed in CHO cells assessed as inhibition of forskolin-induced cAMP accumulation; assay type: functional, cell-based
T2 sequence (P34972 whole entry): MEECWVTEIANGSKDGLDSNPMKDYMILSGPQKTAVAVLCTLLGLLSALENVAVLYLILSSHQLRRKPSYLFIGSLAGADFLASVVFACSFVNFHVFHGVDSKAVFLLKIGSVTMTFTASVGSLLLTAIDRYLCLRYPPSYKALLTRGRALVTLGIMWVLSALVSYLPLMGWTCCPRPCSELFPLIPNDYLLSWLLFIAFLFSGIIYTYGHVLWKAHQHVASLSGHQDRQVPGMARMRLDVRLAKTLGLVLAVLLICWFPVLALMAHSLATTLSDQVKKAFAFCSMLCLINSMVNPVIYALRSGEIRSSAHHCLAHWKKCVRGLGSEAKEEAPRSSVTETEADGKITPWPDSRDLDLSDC

Cannabinoid receptor 2 [3] = target: T2, Cannabinoid receptor 2; test: Agonist activity at human cloned CB2 receptor expressed in CHO cells assessed as inhibition of forskolin-induced cAMP accumulation relative to control; assay type: functional, cell-based
[4] = AUC (0 to 6 hrs) in rat at 10 mg/kg, po; assay type: ADME, organism-based; parameters: time < 6 hr, dose 10 mg/kg, route oral; conditions: plasma
Cannabinoid receptor 1 [5] = target: T1, Cannabinoid receptor 1; test: Displacement of [3H]-CP55940 from human cloned CB1 receptor expressed in CHO cells; assay type: cell-based
Cannabinoid receptor 2 [6] = target: T2, Cannabinoid receptor 2; test: Displacement of [3H]-CP55940 from human cloned CB2 receptor expressed in CHO cells; assay type: cell-based
Cannabinoid receptor 1 [7] = target: T1, Cannabinoid receptor 1; test: Agonist activity at human cloned CB1 receptor expressed in CHO cells assessed as inhibition of forskolin-induced cAMP accumulation relative to control; assay type: functional, cell-based

T1 sequence (P21554 whole entry): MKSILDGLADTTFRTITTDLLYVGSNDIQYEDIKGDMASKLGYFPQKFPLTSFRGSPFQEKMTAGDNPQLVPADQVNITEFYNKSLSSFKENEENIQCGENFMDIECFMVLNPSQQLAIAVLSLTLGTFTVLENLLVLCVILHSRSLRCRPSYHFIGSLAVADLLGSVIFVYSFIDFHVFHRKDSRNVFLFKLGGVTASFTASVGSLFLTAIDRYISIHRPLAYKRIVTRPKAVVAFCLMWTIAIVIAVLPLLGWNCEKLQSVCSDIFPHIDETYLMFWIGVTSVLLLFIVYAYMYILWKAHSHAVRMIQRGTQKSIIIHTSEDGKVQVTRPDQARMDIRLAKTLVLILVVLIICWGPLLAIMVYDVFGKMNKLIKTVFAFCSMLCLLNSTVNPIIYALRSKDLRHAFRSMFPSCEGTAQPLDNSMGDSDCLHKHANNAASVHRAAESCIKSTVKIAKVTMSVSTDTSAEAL

Structure (SMILES)	EC50 (Cannabinoid receptor 2 [2]) [µM]	Emax (Cannabinoid receptor 2 [3]) [%]	EC50 (Cannabinoid receptor 1 [1]) [µM]	AUC(0-t) at 6 h [4] [nM·h]	Ki (Cannabinoid receptor 1 [5]) [µM]	Ki (Cannabinoid receptor 2 [6]) [µM]	Emax (Cannabinoid receptor 1 [7]) [%]
FC(F)(F)c1cccc(-c2cn(-c3ccccc3)c(-c3cccc(CN4CCOCC4)c3)n2)c1	> 1						
CCOc1ccc(F)c(-c2c[nH]c(-c3cccc(CN4CCCCC4)c3)n2)c1	0.087	102	8.5				
COc1ccc(F)c(-c2c[nH]c(-c3cccc(CN4CCCCC4)c3)n2)c1	0.004	108	0.32				
CC(C)n1cc(-c2cccc(C(F)(F)F)c2)nc1-c1cccc(CN2CCOCC2)c1	0.218		> 1				
C[C@H]1COCCN1Cc1cccc(-c2nc(-c3cccc(C(F)(F)F)c3)c[nH]2)c1	0.169	78					
CC1CN(Cc2ccccc2-c2nc(-c3cccc(C(F)(F)F)c3)c[nH]2)CCO1 (centres undefined)	0.51	102	> 10				
COc1ccc(F)c(-c2c[nH]c(-c3cccc(CN4CCOCC4)c3)n2)c1	0.004	109	0.14				
Clc1cccc(-c2c[nH]c(-c3cccc(CN4CCCCC4)c3)n2)c1	0.01	114	1.05				
FC1(F)CCN(Cc2cccc(-c3nc(-c4cccc(C(F)(F)F)c4)c[nH]3)c2)CC1	0.005	100	2.55	1110			
COc1ccc(F)c(-c2c[nH]c(-c3cccc(CN4CCC(F)(F)CC4)c3)n2)c1	0.005	107	0.025				
FC1CCN(Cc2cccc(-c3nc(-c4ccc(Cl)cc4Cl)c[nH]3)c2)CC1	0.01	107	2.45				
O=S(=O)(c1ccccc1)n1cc(-c2cccc(C(F)(F)F)c2)nc1-c1cccc(CN2CCOCC2)c1	> 1						
Brc1cccc(-c2c[nH]c(-c3cccc(CN4CCOCC4)c3)n2)c1	0.005	112	0.665	158			
Clc1cccc(-c2c[nH]c(-c3cccc(CN4CCCCC4)c3)n2)c1Cl	0.008	115	12.6				
FC(F)(F)c1cccc(-c2c[nH]c(-c3cccc(CN4CCCCC4)c3)n2)c1	0.014	104	> 10	537			
FC(F)(F)c1cccc(-c2cn(CC3CC3)c(-c3cccc(CN4CCOCC4)c3)n2)c1	0.412	68	> 1				
FC(F)(F)c1cccc(-c2cn(Cc3ccccc3)c(-c3cccc(CN4CCOCC4)c3)n2)c1	> 1		> 1				
CC(=O)n1cc(-c2cccc(C(F)(F)F)c2)nc1-c1cccc(CN2CCOCC2)c1	0.009	102	> 1				
CC1CCN(Cc2cccc(-c3nc(-c4cccc(Cl)c4Cl)c[nH]3)c2)CC1	0.025	107	> 10				
FC1(F)CCCN(Cc2cccc(-c3nc(-c4cccc(C(F)(F)F)c4)c[nH]3)c2)C1	0.025	98		851			
FC(F)(F)c1cccc(-c2c[nH]c(-c3cccc(CN4CCOCC4)c3)n2)c1	0.008	80	> 1	866	1	0.042	67
CC1CN(Cc2cccc(-c3nc(-c4cccc(C(F)(F)F)c4)c[nH]3)c2)CCO1 (centres undefined)	0.025	97	> 10	1990			
COc1ccc(-c2c[nH]c(-c3cccc(CN4CCC(F)(F)CC4)c3)n2)c(F)c1	0.003	107	0.039				
O=C(c1ccccc1)n1cc(-c2cccc(C(F)(F)F)c2)nc1-c1cccc(CN2CCOCC2)c1	0.011	101					
CC1CCN(Cc2cccc(-c3nc(-c4cccc(C(F)(F)F)c4)c[nH]3)c2)CC1	0.021	97	> 10	881			

Now from value to compound, other results behind:

EC50 (Cannabinoid receptor 2 [2]) [µM]	Emax (Cannabinoid receptor 2 [3]) [%]	Structure (SMILES)	EC50 (Cannabinoid receptor 1 [1]) [µM]	AUC(0-t) at 6 h [4] [nM·h]	Ki (Cannabinoid receptor 1 [5]) [µM]	Ki (Cannabinoid receptor 2 [6]) [µM]	Emax (Cannabinoid receptor 1 [7]) [%]
0.005	119	FC1CCN(Cc2cccc(-c3nc(-c4cccc(Cl)c4Cl)c[nH]3)c2)CC1	1.29				
0.016	98	FC1CCCN(Cc2cccc(-c3nc(-c4cccc(C(F)(F)F)c4)c[nH]3)c2)C1 (centres undefined)		682			
0.005	106	COc1ccc(F)c(-c2c[nH]c(-c3cccc(CN4CCC(F)CC4)c3)n2)c1	0.087				
0.024	104	Clc1ccc(-c2c[nH]c(-c3cccc(CN4CCCCC4)c3)n2)c(Cl)c1	1.8				
0.07	87	CC1CCCN(Cc2cccc(-c3nc(-c4cccc(C(F)(F)F)c4)c[nH]3)c2)C1 (centres undefined)		1410			
0.009	107	FC1CCN(Cc2cccc(-c3nc(-c4cccc(C(F)(F)F)c4)c[nH]3)c2)CC1	2.29	524			
0.006	100	FC(F)(F)c1cccc(-c2c[nH]c(-c3cccc(CN4CCSCC4)c3)n2)c1	> 1	42			
0.014	102	CC1CN(Cc2cccc(-c3nc(-c4cccc(Cl)c4)c[nH]3)c2)CCO1 (centres undefined)	3.25				
0.13	108	FC1CCN(Cc2ccccc2-c2nc(-c3cccc(C(F)(F)F)c3)c[nH]2)CC1	> 10				
0.113	92	O[C@H]1CCCN(Cc2cccc(-c3nc(-c4cccc(C(F)(F)F)c4)c[nH]3)c2)C1	> 10				
0.061	91	OCC1CCCN(Cc2cccc(-c3nc(-c4cccc(C(F)(F)F)c4)c[nH]3)c2)C1 (centres undefined)	> 1				
0.008	107	FC1CCN(Cc2cccc(-c3nc(-c4cccc(Cl)c4)c[nH]3)c2)CC1	0.13				
